The record followed here is patent publication US20260182569A1, “SMART BIOSTIMULANT DELIVERY FOR PLANT GROWTH AND DEVELOPMENT” (King Abdullah University of Science and Technology, priority 2022, published 2026).

Each structure is given as a SMILES string.

The nature of series [1]: Thermal stability in amino acid media, PBS and HEPES, 45° C. for 24 hours (UV-vis). The format is physicochemical. As to conditions: amino acid and buffer (PBS, HEPES) solutions. An excerpt: Organic matter is combined with more than 90% of the nitrogen sources present in the soil, with 20%-40% of this ratio in amino form. The amino acid (AA) composition of soil organic matter depends on several factors, for instance, pH, plant interaction with other microorganisms, environmental factors (e.g., temperature and CO2 levels), and chemical and nutrient composition. Thus, considering the complexity of using soil as substrates for plants as well as the mechanisms that these undergo during their growth stages, it is important to develop more resistant materials that remain stable under certain conditions. To test the stability of ZIF-8@MiZax-3, it was dissolved in a series of AA media and incubated it at 45° C. for 24 hours. Additionally, PBS and HEPES solutions were utilized to assess the thermal stability in biological and physiological conditions.
A set of samples were prepared as follows: Aspartic acid (5 mM), Glutamine (5 mM), Histidine (5 mM), PBS (1×), Asparagine (5 mM), Glutamic acid (5 mM), Alanine (5 mM), HEPES (10 mM), Mixture of amino acids (5 mM) all in 5 mL of PBS and 1 drop of ethanol. Subsequently, the samples were vortexed for 10 seconds and incubated at 45° C. for 24 hours. […]
A decrease in intensity around 283 nm wavelength and remarkable shifts in the absorbance maxima of MiZax-3 were readily observed after the incubation period. […]

The subject of another series is 3T3 cells. Description: Cytotoxicity analysis, live-dead viability and CCK-8 assays. The following applies: viability after 24 hours. The class given is cell-based. An excerpt: FIG. 10A illustrates a cytotoxicity analysis of precursor molecules, including Zn(NO3)2, 2-MIm, and MiZax-3, according to some embodiments. FIG. 10B illustrates a cytotoxicity analysis of ZIF-8 and ZIF-8@MiZax-3 complexes, according to some embodiments. Assessing the safety of this synthetic platform is critical. Accordingly, it is important to check if any of the materials or degraded building blocks are transferred from the rhizosphere to the actual fruit. For cytotoxicity analysis, live-dead viability and cell counting kit-8 (CCK-8) assays were performed according to the manufacturer's protocol. Briefly, 3T3 cells (1×10^4 cells per well) were seeded onto a 96-well plate. After 24 hours, cells were incubated with different concentrations (0.1, 0.5, 1, 5, 10, and 50 μg/mL) of ZIF-8 and ZIF-8 loaded with MiZax-3. In addition, to evaluate the cytotoxicity of the particles after degradation at low pH, 3T3 cells were incubated with Zn(NO3)2 and 2-MIm at concentrations of (0.01, 0.05, 0.1, 0.5, 1, 5, 10, and 50 μg/mL) and with MiZax-3 at (0.01, 0.05, 0.1, 0.5, 1, 5, 10, and 50 ng/mL). The cell viability was measured after 24 hours.
For orientation: Tetrazolium dyes change colour on reduction, which living cells bring about.

A further series concerns pepper fruits. Briefly: LC-MS analysis of pepper fruits from field trial for MiZax-3. The class given is in vivo.
Series [2] relates to Capsicum (C. annuum L. var. California Wonder). Description: Capsicum field trial, growth and yield. The format is in vivo. On the procedure: FIG. 10C illustrates a schematic representation of the final product utilized for soil treatment, according to some embodiments. The final products included ZIF-8, MiZax-3, and ZIF-8@MiZax-3. These products were added to the sand/soil for the field experiment. FIG. 10D illustrates pictures of a field experiment utilizing ZIF-8@MiZax-3, according to some embodiments. Capsicum (C. annuum L. var. California Wonder) seedlings used for the field trial were initially germinated in soil and grown until the 4-week-old stage in a greenhouse under a semi-controlled environment adjusted to 28° C. (day)/26° C. (night) temperature, under 12 hours-light photoperiod with 60% humidity for nursery. During the nursery period, seedlings were given Hoagland solution to boost their growth before transferring to the field. The uniformly selected seedlings were transferred to the field during the winter season. The field used for the capsicum trial for testing ZIF-8, MiZax-3, and ZIF-8@MiZax-3 was divided into plots and treatments were allocated by following randomized complete block design (RCBD) with three replications as previously described. Each plot size was around 2 m×1.2 m with a planting distance of 50 cm×60 cm (8 plants/plot). After a week of acclimation, the first soil treatments were completed by mixing ZIF-8 (˜33.3 mg/L soil), MiZax-3 (˜1.38 mg/L soil), and ZIF-8@MiZax-3 (˜33.3 mg/L soil) directly on top of each plant stem on the soil surface. The treatments were repeated twice with a month gap in between. Plants were watered with a drip irrigation system twice a day, with an average of half a liter of water per individual. Plant phenotyping data were collected until 13 weeks after transplanting (13WAT) stage to the field. FIG. 11B illustrates a graph of the number of buds per individual at 4WAT, according to some embodiments. […] Two consecutive harvests were completed to compare the total fresh fruit yield harvested per total number of plants (n=24) between treatments and mock. The ZIF-8, MiZax-3 and ZIF-8@MiZax-3 treatments enhanced the total yield by 26.37%, 31.76% and 35.11%, respectively. […] In addition, zinc fertilizers can alter the microbial communities in the rhizosphere, which promotes plant growth and eventually increases yield.

Where [3] appears, read: fresh fruit, total number of plants n=24.

On to `COc1ccc(Oc2cccc(/C=C/C(C)=O)c2)cc1` [MiZax-3, (E)-4-(3-(4-methoxyphenoxy)phenyl) but-3-en-2-one], for which, in series [1], the “Shift of UV-vis absorption after thermal incubation” value is “significant wavelength shifts up to 332 nm”. The “Concentration up to which high biocompatibility was exhibited” value with 3T3 cells is reported as “up to 50 ng/ml”. For the same molecule, the “MiZax-3 in pepper fruits of treated plants” value in the series with pepper fruits is “no detectible MiZax-3”. Moreover, in series [2] (4WAT), the “Number of flower buds per individual” value was “significantly higher number of flower buds compared to the mock and ZIF-8 treated seedlings”; the Plant height entry is “significantly taller than mock and ZIF-8 treated plants”. For the same molecule, the “Average dry shoot biomass per individual plant” value in series [2] (13WAT, compared to mock, no statistically significant difference) is “upwards trend”. For the same molecule, the “Plant health (appearance)” value in series [2] (13WAT, versus mock) is “healthier than the mock plants”. In addition, the “Average Total Fruit Number” value in series [2] (capsicum field trial, soil treatment) worked out at 53.17. In series [2] (setting [3]), this molecule came in with a Harvest-1 of 4464.8 g and a Harvest-2 of 5423.8 g. Further, the “Yield Enhancement” value in series [2] (total yield versus mock) came to 31.76%. For the same molecule, the “Total Yield” value in series [2] (two harvests, total number of plants n=24) is recorded as 9888.6 g.
